As usually defined, the IC50 is the concentration that gives 50% inhibition. The low end stands for greater potency in that assay, the high end for weaker potency in that assay. As a reminder, the GI50 is the concentration that inhibits growth by half.

The text below walks through data of patent US20240067668A1, “HETEROARYL DERIVATIVE COMPOUND AND USE THEREOF” (VORONOI INC., priority 2020, published 2024).

Experiment [1] deals with EGFR Del19/T790M/C797S (Homo sapiens, UniProt P00533, C797S/T790M, form not given). Kind of experiment: Enzyme IC50, EGFR Del19/T790M/C797S. Format: biochemical.
Sequence of EGFR Del19/T790M/C797S (P00533 25-1210 T790M/C797S, form open): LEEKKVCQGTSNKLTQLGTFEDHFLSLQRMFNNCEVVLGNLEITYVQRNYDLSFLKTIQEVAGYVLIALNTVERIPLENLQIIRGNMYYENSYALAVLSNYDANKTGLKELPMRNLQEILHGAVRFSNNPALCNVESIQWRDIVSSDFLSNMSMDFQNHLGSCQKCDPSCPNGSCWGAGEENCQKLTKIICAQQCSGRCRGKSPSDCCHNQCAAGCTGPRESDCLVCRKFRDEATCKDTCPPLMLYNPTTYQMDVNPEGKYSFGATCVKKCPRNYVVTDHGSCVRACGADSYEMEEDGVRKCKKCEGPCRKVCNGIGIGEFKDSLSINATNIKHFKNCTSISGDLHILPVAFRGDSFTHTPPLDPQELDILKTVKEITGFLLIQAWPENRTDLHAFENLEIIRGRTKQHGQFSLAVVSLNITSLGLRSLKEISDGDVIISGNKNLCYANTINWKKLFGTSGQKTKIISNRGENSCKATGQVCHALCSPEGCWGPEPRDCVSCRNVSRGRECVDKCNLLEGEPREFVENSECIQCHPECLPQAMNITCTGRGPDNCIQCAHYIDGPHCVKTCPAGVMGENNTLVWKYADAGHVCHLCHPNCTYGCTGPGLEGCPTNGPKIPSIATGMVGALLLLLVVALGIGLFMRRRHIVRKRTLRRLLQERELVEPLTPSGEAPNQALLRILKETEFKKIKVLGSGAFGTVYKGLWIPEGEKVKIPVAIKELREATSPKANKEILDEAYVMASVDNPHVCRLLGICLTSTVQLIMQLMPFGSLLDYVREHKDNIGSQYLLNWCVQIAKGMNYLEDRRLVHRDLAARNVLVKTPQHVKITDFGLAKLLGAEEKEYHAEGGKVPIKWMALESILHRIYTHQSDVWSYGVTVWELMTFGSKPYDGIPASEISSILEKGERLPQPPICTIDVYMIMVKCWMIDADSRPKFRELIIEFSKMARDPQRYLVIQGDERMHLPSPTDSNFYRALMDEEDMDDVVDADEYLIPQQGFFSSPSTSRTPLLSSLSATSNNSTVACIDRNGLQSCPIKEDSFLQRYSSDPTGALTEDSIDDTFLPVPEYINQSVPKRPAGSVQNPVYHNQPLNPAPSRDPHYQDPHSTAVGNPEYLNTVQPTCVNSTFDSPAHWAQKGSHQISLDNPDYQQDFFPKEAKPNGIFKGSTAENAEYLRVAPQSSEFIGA
Experiment [2] has as its system BaF3-EGFR (Del19/T790M/C797S) cells. Kind of experiment: Inhibitory activity on Ba/F3 cell proliferation (CellTiter-Glo, 72 hours). To be noted: Ba/F3 cells expressing EGFR Del19/T790M/C797S. It is filed as cell-based. The procedure, abridged: (§1)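 Ba/F3 cells expressing wild-type EGFR or EGFR Del19/T790M/C797S, 3×10^3 per well, exposed 72 h at 37 °C to compound at 12 threefold dilutions, 0.00005-10 μM final. Viability by CellTiter-Glo 2.0; GI50 derived from growth relative to DMSO-treated cells.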

Experiment [3] deals with BaF3-EGFR (WT) cells. The experiment is described as above. As to conditions: Ba/F3 cells expressing EGFR WT. Format: cell-based. The gist of the method: as §1

Consider `COc1cc(N(C)CCN(C)C)c(-c2cnn(C)c2)cc1Nc1nc(Nc2ccc3nccnc3c2P(C)(C)=O)c2cc[nH]c2n1` [Example 36, (6-((2-((4-((2-(dimethylamino)ethyl) (methyl)amino)-2-methoxy-5-(1-methyl-1H-pyrazol-4-yl)phenyl)amino)-7H-pyrrolo[2,3-d]pyrimidin-4-yl)amino)quinoxalin-5-yl)dimethyl-phosphine oxide], for which, in experiment [1], the IC50 was no more than 0.05 µM. Moreover, the GI50 in experiment [2] is no more than 0.05 µM; in experiment [3], greater than 0.1 µM.
`COc1cc(N2C[C@H]3COC[C@H]3C2)c(-c2cnn(C)c2)cc1Nc1nc(Nc2ccc3nccnc3c2P(C)(C)=O)c2cc[nH]c2n1` [Example 41, (6-((2-((2-methoxy-5-(1-methyl-1H-pyrazol-4-yl)-4-((3aR,6aS)-tetrahydro-1H-furo[3,4-c]pyrrole-5(3H)-yl)phenyl)amino)-7H-pyrrolo[2,3-d]pyrimidin-4-yl)amino)quinoxalin-5-yl)dimethyl-phosphine oxide] gave an IC50 in experiment [1] of no more than 0.05 µM. The GI50 was no more than 0.05 µM in experiment [2] and greater than 0.1 µM in experiment [3].
Consider `COc1cc(N2CCN3CCCC[C@@H]3C2)c(-c2cnn(C)c2)cc1Nc1nc(Nc2ccc3nccnc3c2P(C)(C)=O)c2cc[nH]c2n1` [Example 43, (R)-(6-((2-((2-methoxy-5-(1-methyl-1H-pyrazol-4-yl)-4-(octahydro-2H-pyrido[1,2-alpyrazin)-2-yl)phenyl)amino)-7H-pyrrolo[2,3-d]pyrimidin-4-yl)amino)quinoxalin-5-yl)dimethyl-phosphine oxide], for which the IC50 in experiment [1] was no more than 0.05 µM. The GI50 in experiment [2] is no more than 0.05 µM; in experiment [3], 0.05 to 0.1 µM.
As for `COc1nc(N2CCN(C)CC2)c(-c2cnn(C)c2)cc1Nc1nc(Nc2ccc3nccnc3c2P(C)(C)=O)c2cc[nH]c2n1` [Example 44, (6-((2-((2-methoxy-5-(1-methyl-1H-pyrazol-4-yl)-6-(4-methyl-piperazin-1-yl)pyridin-3-yl)amino)-7H-pyrrolo[2,3-d]pyrimidin-4-yl)amino)quinoxalin-5-yl)dimethyl-phosphine oxide], in experiment [1], the IC50 was no more than 0.05 µM. Also, the GI50 in experiment [2] was no more than 0.05 µM; in experiment [3] it was greater than 0.1 µM.
Regarding `CCn1cc(-c2cc(Nc3nc(Nc4ccc5nccnc5c4P(C)(C)=O)c4cc[nH]c4n3)c(OC)cc2N2CCN(C)CC2)cn1` [Example 47, (6-((2-((5-(1-ethyl-1H-pyrazol-4-yl)-2-methoxy-4-(4-methyl-piperazin-1-yl)phenyl)amino)-7H-pyrrolo[2,3-d]pyrimidin-4-yl)amino)quinoxalin-5-yl)dimethyl-phosphine oxide], in experiment [1], the IC50 was no more than 0.05 µM. Further, the GI50 is no more than 0.05 µM in experiment [2] and greater than 0.1 µM in experiment [3].
Turning to `CCN1CCN(c2cc(OC)c(Nc3nc(Nc4ccc5nccnc5c4P(C)(C)=O)c4cc[nH]c4n3)cc2-c2cnn(C(C)C)c2)CC1` [Example 48, (6-((2-((4-(4-ethylpiperazin-1-yl)-5-(1-isopropyl-1H-pyrazol-4-yl)-2-methoxyphenyl)amino)-7H-pyrrolo[2,3-d]pyrimidin-4-yl)amino)quinoxalin-5-yl)dimethyl-phosphine oxide], the IC50 in experiment [1] is no more than 0.05 µM. Also, the concentration for 50% growth inhibition (GI50) in experiment [2] and in experiment [3] was greater than 0.1 µM each time.
For the compound `COc1cc(N2CCN(C)CC2)c(-c2cnn(C(F)F)c2)cc1Nc1nc(Nc2ccc3nccnc3c2P(C)(C)=O)c2cc[nH]c2n1` [Example 50, (6-((2-((5-(1-(difluoromethyl)-1H-pyrazol-4-yl)-2-methoxy-4-(4-methyl-piperazin-1-yl)phenyl)amino)-7H-pyrrolo[2,3-d]pyrimidin-4-yl)amino)quinoxalin-5-yl)dimethyl-phosphine oxide], the IC50 in experiment [1] was no more than 0.05 µM. In addition, the GI50 was no more than 0.05 µM in experiment [2] and greater than 0.1 µM in experiment [3].
`CCc1cc(Nc2nc(Nc3ccc4nccnc4c3P(C)(C)=O)c3cc[nH]c3n2)c(OC)cc1N1CCC(N2CCN(C)CC2)CC1` [Example 55, (6-((2-((5-ethyl-2-methoxy-4-(4-(4-methylpiperazin-1-yl)piperidin-1-yl)phenyl)amino)-7H-pyrrolo[2,3-d]pyrimidin-4-yl)amino)quinoxalin-5-yl)dimethyl-phosphine oxide] showed an IC50 in experiment [1] of no more than 0.05 µM. The GI50 in experiment [2] is no more than 0.05 µM; in experiment [3], greater than 0.1 µM.
On to `COc1cc(N2CCC(N3CCN(C)CC3)CC2)c(Cl)cc1Nc1nc(Nc2ccc3nccnc3c2P(C)(C)=O)c2cc[nH]c2n1` [Example 56, (6-((2-((5-chloro-2-methoxy-4-(4-(4-methylpiperazin-1-yl)piperidin-1-yl)phenyl)amino)-7H-pyrrolo[2,3-d]pyrimidin-4-yl)amino)quinoxalin-5-yl)dimethyl-phosphine oxide], for which the IC50 in experiment [1] was no more than 0.05 µM. For the same compound, the GI50 in experiment [2] was no more than 0.05 µM; in experiment [3], greater than 0.1 µM.
On to `COc1cc(N2CCC(N3CCN(C4CC4)CC3)CC2)c(C)cc1Nc1nc(Nc2ccc3nccnc3c2P(C)(C)=O)c2cc[nH]c2n1` [Example 60, (6-((2-((4-(4-(4-cyclopropyl-piperazin-1-yl)piperidin-1-yl)-2-methoxy-5-methylphenyl)amino)-7H-pyrrolo[2,3-d]pyrimidin-4-yl)amino)quinoxalin-5-yl)dimethyl-phosphine oxide], for which the IC50 in experiment [1] is no more than 0.05 µM. For the same compound, the GI50 in experiment [2] was no more than 0.05 µM; in experiment [3], greater than 0.1 µM.
In the case of `CCN1CCN(C2CCN(c3cc(OC)c(Nc4nc(Nc5ccc6nccnc6c5P(C)(C)=O)c5cc[nH]c5n4)cc3C)CC2)CC1` [Example 61, (6-((2-((4-(4-(4-ethylpiperazin-1-yl)piperidin-1-yl)-2-methoxy-5-methylphenyl)amino)-7H-pyrrolo[2,3-d]pyrimidin-4-yl)amino)quinoxalin-5-yl)dimethyl-phosphine oxide], the IC50 in experiment [1] was no more than 0.05 µM. Further, the GI50 was 0.05 to 0.1 µM in experiment [2] and greater than 0.1 µM in experiment [3].
On the same counts, the results for `COc1cc(N2CCC(N3CCN(C(C)C)CC3)CC2)c(C)cc1Nc1nc(Nc2ccc3nccnc3c2P(C)(C)=O)c2cc[nH]c2n1` [Example 62, (6-((2-((4-(4-(4-isopropyl-piperazin-1-yl)piperidin-1-yl)-2-methoxy-5-methylphenyl)amino)-7H-pyrrolo[2,3-d]pyrimidin-4-yl)amino)quinoxalin-5-yl)dimethyl-phosphine oxide] are no more than 0.05 µM, 0.05 to 0.1 µM and greater than 0.1 µM.
On the same counts, the results for `COc1ccc(C)cc1Nc1nc(Nc2ccc3nccnc3c2P(C)(C)=O)c2cc[nH]c2n1` [Example 68, (6-((2-((2-methoxy-5-methylphenyl)amino)-7H-pyrrolo[2,3-d]pyrimidin-4-yl)amino)quinoxalin-5-yl)dimethyl-phosphine oxide] are no more than 0.05 µM, greater than 0.1 µM and greater than 0.1 µM.
`CCOc1ccc(C(F)(F)F)cc1Nc1nc(Nc2ccc3nccnc3c2P(C)(C)=O)c2cc[nH]c2n1` [Example 69, (6-((2-((2-ethoxy-5-(trifluoromethyl)phenyl)amino)-7H-pyrrolo[2,3-d]pyrimidin-4-yl)amino)quinoxalin-5-yl)dimethyl-phosphine oxide]: the IC50 in experiment [1] was greater than 0.1 µM. Also, the GI50 in experiment [2] and in experiment [3] was greater than 0.1 µM in each case.
